# Assay results taken from ChEMBL document CHEMBL6103575, “Design, synthesis and evaluation of (E)-1-(4-(2-(1H-pyrazol-5-yl)vinyl)phenyl) derivatives as next generation selective RET inhibitors overcoming RET solvent front mutations (G810C/R)” (Eur J Med Chem, 2025).
# Columns and labels:
# BaF3 [1] = test: Antiproliferative activity against mouse BaF3 cells harbouring CCDC6-RET assessed as inhibition of cell proliferation incubated for 72 hrs by CCK-8 assay; assay type: functional, cell-based; details: BaF3, 72 h
# [2] = target: Proto-oncogene tyrosine-protein kinase receptor Ret (Homo sapiens, UniProt P07949); test: Inhibition of RET (unknown origin) at 1 uM relative to control
# Chain of Proto-oncogene tyrosine-protein kinase receptor Ret (P07949 whole entry): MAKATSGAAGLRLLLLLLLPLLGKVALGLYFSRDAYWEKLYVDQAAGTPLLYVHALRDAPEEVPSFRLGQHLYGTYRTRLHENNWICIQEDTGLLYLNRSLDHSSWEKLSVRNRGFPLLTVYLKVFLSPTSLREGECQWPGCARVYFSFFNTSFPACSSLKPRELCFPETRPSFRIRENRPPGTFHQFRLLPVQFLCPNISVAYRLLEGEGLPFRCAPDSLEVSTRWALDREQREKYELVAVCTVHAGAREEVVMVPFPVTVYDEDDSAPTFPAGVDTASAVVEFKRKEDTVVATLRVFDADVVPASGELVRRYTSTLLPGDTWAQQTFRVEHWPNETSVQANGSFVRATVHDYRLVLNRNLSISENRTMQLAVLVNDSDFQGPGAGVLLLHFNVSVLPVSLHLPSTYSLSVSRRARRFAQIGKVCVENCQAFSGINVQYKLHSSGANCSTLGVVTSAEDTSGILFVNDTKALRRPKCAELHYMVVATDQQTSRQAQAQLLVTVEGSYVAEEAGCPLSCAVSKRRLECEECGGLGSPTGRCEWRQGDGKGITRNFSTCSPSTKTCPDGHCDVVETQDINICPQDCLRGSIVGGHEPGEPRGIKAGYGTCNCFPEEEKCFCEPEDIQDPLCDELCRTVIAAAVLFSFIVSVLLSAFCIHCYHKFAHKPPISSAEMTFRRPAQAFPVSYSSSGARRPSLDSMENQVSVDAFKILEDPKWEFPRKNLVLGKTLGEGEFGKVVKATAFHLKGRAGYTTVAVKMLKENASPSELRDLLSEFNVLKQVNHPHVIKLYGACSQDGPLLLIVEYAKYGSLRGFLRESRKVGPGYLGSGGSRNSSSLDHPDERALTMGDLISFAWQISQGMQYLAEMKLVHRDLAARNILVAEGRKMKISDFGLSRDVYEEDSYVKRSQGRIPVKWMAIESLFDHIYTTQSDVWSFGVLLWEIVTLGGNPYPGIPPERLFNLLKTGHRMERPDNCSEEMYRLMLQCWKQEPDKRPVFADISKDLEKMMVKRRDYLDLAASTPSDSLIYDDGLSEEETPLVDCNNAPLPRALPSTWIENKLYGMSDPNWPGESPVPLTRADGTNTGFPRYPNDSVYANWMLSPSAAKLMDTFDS
# [3] = test system: Proto-oncogene tyrosine-protein kinase receptor Ret (Homo sapiens), P07949 [V804M]; test: Inhibition of RET (unknown origin) V804M mutant at 1 uM relative to control
# Chain of Proto-oncogene tyrosine-protein kinase receptor Ret (Homo sapiens), P07949 [V804M] (P07949 whole entry V804M): as the sequence (P07949 whole entry) above, with V804M counted along it
# [4] = test system: Proto-oncogene tyrosine-protein kinase receptor Ret (Homo sapiens), P07949 [G810C]; test: Inhibition of RET (unknown origin) G810C mutant at 1 uM relative to control
# Chain of Proto-oncogene tyrosine-protein kinase receptor Ret (Homo sapiens), P07949 [G810C] (P07949 whole entry G810C): as the sequence (P07949 whole entry) above, with G810C counted along it
# Ephrin type-B receptor 4 = target: T1, Ephrin type-B receptor 4 (Homo sapiens, UniProt P54760); test: Inhibition of EPHB4 (unknown origin)
# T1 sequence (P54760 whole entry): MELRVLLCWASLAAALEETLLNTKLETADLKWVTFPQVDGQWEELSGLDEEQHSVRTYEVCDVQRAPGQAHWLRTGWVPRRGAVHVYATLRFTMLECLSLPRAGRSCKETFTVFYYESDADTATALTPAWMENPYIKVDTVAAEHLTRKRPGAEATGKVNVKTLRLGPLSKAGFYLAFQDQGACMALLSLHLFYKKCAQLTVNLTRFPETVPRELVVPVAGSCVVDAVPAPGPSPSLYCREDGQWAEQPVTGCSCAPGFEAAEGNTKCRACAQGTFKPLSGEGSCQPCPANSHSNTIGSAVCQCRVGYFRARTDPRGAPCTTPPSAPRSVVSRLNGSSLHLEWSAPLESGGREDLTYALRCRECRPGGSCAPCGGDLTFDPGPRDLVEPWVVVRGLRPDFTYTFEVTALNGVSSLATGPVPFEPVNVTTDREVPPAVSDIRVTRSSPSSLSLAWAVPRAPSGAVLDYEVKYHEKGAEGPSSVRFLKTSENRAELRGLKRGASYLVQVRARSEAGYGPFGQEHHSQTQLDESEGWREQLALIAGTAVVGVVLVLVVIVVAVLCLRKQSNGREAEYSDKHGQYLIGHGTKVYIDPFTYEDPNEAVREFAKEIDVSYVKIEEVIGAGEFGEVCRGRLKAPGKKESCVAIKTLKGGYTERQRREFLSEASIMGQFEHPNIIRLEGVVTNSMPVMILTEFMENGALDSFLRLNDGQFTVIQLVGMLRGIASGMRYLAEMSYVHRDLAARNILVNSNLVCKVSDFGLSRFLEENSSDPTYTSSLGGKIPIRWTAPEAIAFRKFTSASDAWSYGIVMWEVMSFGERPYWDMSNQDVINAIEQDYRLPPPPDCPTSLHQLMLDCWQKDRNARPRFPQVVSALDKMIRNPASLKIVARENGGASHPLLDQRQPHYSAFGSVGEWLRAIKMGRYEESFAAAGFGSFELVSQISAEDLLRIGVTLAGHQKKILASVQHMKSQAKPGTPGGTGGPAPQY
# [5] = Induction of apoptosis in mouse BaF3 cells harboring CCDC6-RET assessed as early apoptotic cells at 100 nM incubated for 48 hrs by Annexin V-PE staining based flow cytometry analysis (Rvb =6.21%); assay type: functional
# [6] = Induction of apoptosis in mouse BaF3 cells harboring CCDC6-RET assessed as viable cells at 300 nM incubated for 48 hrs by Annexin V-PE staining based flow cytometry analysis (Rvb =91.16%); assay type: functional; details: read-out: Activity
# [7] = Induction of apoptosis in mouse BaF3 cells harboring CCDC6-RET assessed as early apoptotic cells at 300 nM incubated for 48 hrs by Annexin V-PE staining based flow cytometry analysis (Rvb =6.21%); assay type: functional
# [8] = Induction of apoptosis in mouse BaF3 cells harboring CCDC6-RET assessed as necrotic cells at 300 nM incubated for 48 hrs by Annexin V-PE staining based flow cytometry analysis (Rvb =0.19%); assay type: functional
# [9] = Induction of apoptosis in mouse BaF3 cells harboring CCDC6-RET G810C mutant assessed as early apoptotic cells at 30 nM incubated for 48 hrs by Annexin V-PE staining based flow cytometry analysis (Rvb =8.74%); assay type: functional
# [10] = Induction of apoptosis in mouse BaF3 cells harboring CCDC6-RET G810C mutant assessed as late apoptotic cells at 100 nM incubated for 48 hrs by Annexin V-PE staining based flow cytometry analysis (Rvb =4.30%); assay type: functional
# [11] = Induction of apoptosis in mouse BaF3 cells harboring CCDC6-RET G810R mutant assessed as early apoptotic cells at 10 nM incubated for 48 hrs by Annexin V-PE staining based flow cytometry analysis (Rvb =10 %); assay type: functional
# [12] = Induction of apoptosis in mouse BaF3 cells harboring CCDC6-RET G810R mutant assessed as early apoptotic cells at 30 nM incubated for 48 hrs by Annexin V-PE staining based flow cytometry analysis (Rvb =10 %); assay type: functional
# [13] = Induction of apoptosis in mouse BaF3 cells harboring CCDC6-RET G810R mutant assessed as late apoptotic cells at 30 nM incubated for 48 hrs by Annexin V-PE staining based flow cytometry analysis (Rvb =3.21%); assay type: functional
# [14] = Induction of apoptosis in mouse BaF3 cells harboring CCDC6-RET G810R mutant assessed as viable cells at 100 nM incubated for 48 hrs by Annexin V-PE staining based flow cytometry analysis (Rvb =86.40%); assay type: functional; details: read-out: Activity
# [15] = Induction of apoptosis in mouse BaF3 cells harboring CCDC6-RET G810R mutant assessed as late apoptotic cells at 300 nM incubated for 48 hrs by Annexin V-PE staining based flow cytometry analysis (Rvb =3.21%); assay type: functional
# [16] = Induction of cell cycle arrest in mouse BaF3 cells harboring CCDC6-RET assessed as accumulation of cells at S phase at 10 nM incubated for 24 hrs by propidium iodide staining based analysis (reference value: 13.27%); assay type: functional
# [17] = Induction of cell cycle arrest in mouse BaF3 cells harboring CCDC6-RET assessed as accumulation of cells at S phase at 100 nM incubated for 24 hrs by propidium iodide staining based analysis (reference value: 13.27%); assay type: functional
# [18] = Induction of cell cycle arrest in mouse BaF3 cells harboring CCDC6-RET G810C mutant assessed as accumulation of cells at G2/M phase at 30 nM incubated for 24 hrs by propidium iodide staining based analysis (reference value: 34.75%); assay type: functional
# [19] = Induction of cell cycle arrest in mouse BaF3 cells harboring CCDC6-RET G810R mutant assessed as accumulation of cells at G2/M phase at 100 nM incubated for 24 hrs by propidium iodide staining based analysis (reference value: 33.61%); assay type: functional
# BaF3 [20] = test: Inhibition of SHC phosphorylation in mouse BaF3 cells harboring CCDC6-RET G810R mutant incubated for 12 hrs by Western blotting analysis; assay type: cell-based; details: dose <= 300.0 nM
# BaF3 [21] = test: Antitumor activity against mouse BaF3 cells implanted in SCID mouse assessed as tumor growth inhibition at 25 mg/kg, ip administered once daily for 10 days; assay type: functional; details: BaF3, 240 h, time 10 day, read-out: TGI
smiles,measurement,setting,value
COc1cncc(-c2cn[nH]c2/C=C/c2ccc(NC(=O)Nc3cc(C(C)(C)C(F)(F)F)on3)c(Cl)c2)c1,IC50,BaF3 [1],13 nM
same,inhibition,[2],98.3%
same,inhibition,[3],98.6%
same,inhibition,[4],102%
same,IC50,Ephrin type-B receptor 4,36.4 nM
same,Activity,[5],74.7%
same,viability at 0.3 µM,[6],13.9%
same,Activity,[7],54.65%
same,Activity,[8],0.04%
same,Activity,[9],9.54%
same,Activity,[10],1.87%
same,Activity,[11],10.05%
same,Activity,[12],9.96%
same,Activity,[13],2.48%
same,viability at 0.1 µM,[14],74%
same,Activity,[15],9.06%
same,Activity,[16],13.37%
same,Activity,[17],7.33%
same,Activity,[18],30.79%
same,Activity,[19],28.68%
same,inhibition,BaF3 [20],Dose-dependent-effect
same,inhibition in vivo at 25 mg/kg,BaF3 [21],39.7%
